Measurements taken from patent US6015560A, “Antibody recognizing endothelial cell ligand for leukocyte CR3” (priority 1995, dated 2000).

Experiments:
leukocytes in CSF [1] = experiment: Rabbit meningitis model: leukocyte migration into CSF; assay type: in vivo; conditions: for leukocyte migration into CSF (in words): 0.1 μM peptide i.v.; for leukocyte density in CSF: 7 hours, 1 ml of 1 uM peptide i.v.
Experimental: (§1) The rabbit model was performed according to an established protocol. Specific pathogen free, New Zealand white rabbits (2 kg; Hare Marland, Nutley, N.J.) were anesthetized with valium (2.5 mg/kg, subcutaneously, Hoffman-LaRoche, Nutley, N.J.), ketamine (35 mg/kg, intramuscularly, Aveco, Fort Dodge, Iowa) and xylazine (5 mg/kg, intramuscularly, Miles Laboratories, Shawnee, Kans.) and a helmet of dental acrylic was affixed to the calvarium. Twenty four hours later, the rabbits were anesthetized with ethyl carbamate (1.75 g/kg; Aldrich Chemical Co., Milwaukee, Wis.) and pentobarbital (15 mg/kg; Abbott Laboratories, Abbott Park, Ill.) and placed in a stereotaxic frame. A spinal needle was introduced into the cisterna magna and 300 μl of CSF was withdrawn. The animals were challenged intracisternally with 10^8 heat killed, unencapsulated pneumococcus strain R6 introduced in 200 μl of saline (time 0). One hour later, animals were treated with peptides dissolved in 1 ml of saline by intravenous injection into the right marginal ear vein. The concentration of FHA was 0.1 μM and that of the FHA Ia, Factor X II, and scrambled FHA II peptides was 10 μM. For the acetyl-FHA II, acetyl/amide-FHA II, dimer of FHA II and trimer of FHA II peptides, the concentration was 10^-3 μM. The concentration of FHA II is given in the results section. Samples of CSF were withdrawn at hourly intervals after pneumococcal inoculation and leukocyte density was measured using a cell counter (Coulter Electronics Inc., Hialeah, Fla.). CSF samples were centrifuged at 10,000×g for 5 minutes and the supernatant was stored at -70° C. until assayed for protein concentration using the bicinchoninic acid method (BCA Kit, Pierce Chemical Co., Rockford, Ill.) and for lactate concentration (Lactate Detection Kit, Sigma, St. Louis, Mo.). Statistically significant differences between treatments were determined by a one way analysis of variance test.
The anti-inflammatory effects of the administered peptides were assessed in the rabbit model for meningitis by the procedures described in Example 10. The animals received 1 ml of 1 uM peptide intravenously. In a slight departure from the protocol described in Example 10, samples of blood were drawn from the left marginal ear vein 30 minutes after the administration of the peptides to determine peripheral leukocyte concentrations.

blood brain barrier = experiment: Rabbit meningitis model: CSF protein and lactate (blood brain barrier permeability); assay type: in vivo
Experimental: as §1
Loss of barrier function of the cerebral capillary endothelium during inflammation is reflected by an influx of serum proteins into the CSF. […] To examine if the peptides were able to ameliorate these measures of cerebral injury, CSF protein and lactate concentrations were measured hourly in peptide-treated and control animals (Table 10).
Leukocyte migration into the CSF in bacterial meningitis is associated with loss of barrier function of the cerebral capillary endothelium, resulting in influx of serum proteins into the CSF. To determine whether FHA peptides were able to prevent this leukocyte-dependent injury, protein concentrations in the CSF were measured throughout the course of inflammation in peptide-treated and control animals.

CD11b/CD18 = target: T1, CD11b/CD18 (Homo sapiens, UniProt P05107+P11215); experiment: Downmodulation of CD11b/CD18 on macrophages (binding of C3bi-coated erythrocytes); assay type: cell-based; conditions: 0.5 mM
T1 construct: C3bi-erythrocyte rosetting after spreading on peptide-coated wells
Experimental: Human monocytes were purified from buffy coats on Percoll gradients and cultured in 12.5% human serum in Teflon beakers. Macrophages were harvested from Teflon beakers after 6-8 days and suspended in HAP buffer. Terasaki wells were coated with 5 μl of peptides (0.5 mM) or anti-CD18 mAb IB4 (50 μg/ml). Control wells were coated with HAP. After 2 hours of incubation at RT, 5 μl of macrophages (5×10^5 /ml HAP) were added and allowed to spread for 45 mins. at 37° C. […] IgM-coated erythrocytes in buffer served as negative control. After washing, the number of erythrocytes bound per 100 leukocytes (adherence index) was quantitated visually under an inverted microscope.

[2] = tested on: human umbilical vein endothelial cells; experiment: Adherence of neutrophils to cultured (TNF-stimulated) endothelial cells; assay type: cell-based; conditions: for neutrophil adherence blocking activity (in words) / inhibition of neutrophil adherence to endothelial cells: 0.5 mM; for neutrophil adherence blocking activity (in words): compared with FHA Ca
Experimental: Human umbilical vein endothelial cells (HUVEC, first passage, Clonetics, San Diego, Calif.) were subcultured at confluence into Terasaki tissue culture wells. After 24 hours, confluent monolayers were used for adherence assays. Monolayers were stimulated with 10 ng/ml TNF alpha (Boehringer Mannheim, Indianapolis, Ind.) at 37° C. for four hours. 30 μl of human neutrophils (10^6 /ml) were labeled with fluorescein by the method of Lo et al. (1991), J. Exp. Med. 173 1493-1500, and preincubated for 15 minutes at 37° C. with 20 μl of peptides (0.5 mM in HAP) or HAP (phosphate buffered saline containing 0.5 mg/ml human serum albumin, 3 mM glucose, and 0.3 U/ml aprotinin) as a control buffer. For some experiments, endothelial cells were pretreated from 10 minutes with Factor X or antibodies against Factor X receptor (EPR-1; Altieri et al. (1990), J. Immunol. 145, 246-253) 12H1 and 9D4 (obtained from Dr. D. Altieri, Scripps Research Institute, Lajolla, Calif.) and then washed. Neutrophils were allowed to adhere to the monolayer for 15 mins. at 37° C. and unbound cells were removed by submersion of the plate in PBS buffer. The number of adherent neutrophils was counted in a 40× microscope field and expressed as a percentage of adherence in control wells with neutrophils treated with HAP buffer alone. The mAb IB4 against CD18 (50 μg/ml; Merck Inc., Rahway, N.J.) served as a positive control.
(§2) The procedures for determining the neutrophil adherence to cultured endothelial cells and the transendothelial migration of neutrophils were identical with those of Example 9. Control values were the same as those shown in Example 9.

neutrophils = experiment: Transendothelial migration of neutrophils; assay type: cell-based, human; conditions: for % Inhibition of TEM: peptides 0.01 mM
Experimental: Transendothelial migration of neutrophils was studied based on a method described by Muller et al. (1992), J. Exp. Med. 176: 819-828. Briefly, human neutrophils suspended in ice-cold Hanks balanced salt solution (HBSS) containing Ca^++ and Mg^++ (Sigma) were fluoresceinated by adding 3.3 μl/ml 5-(and 6-)carboxyfluorescein diacetate, succinimidyl ester (CFSE, Molecular Probes Inc., Oreg.). After incubation for 30 mins. on ice, neutrophils were washed twice in cold HBSS with Ca^++ and Mg^++ and resuspended in cold Medium 199 (M199, Sigma) to a final concentration of 10^6 /ml. Human umbilical vein endothelial cells were subcultured at confluence into 96-well tissue culture plates (Becton Dickinson Labware, Lincoln Park, N.J.) that were coated with hydrated collagen gel (Vitrogen; Collagen Corporation, Palo Alto, Calif.) and fibronectin. Endothelial cells were stimulated with 10 ng/ml TNF-alpha for 4 hours and washed three times with warm M199. Neutrophils (10^6 /ml) were preincubated with 0.01 mM of peptides or with 1 μM of native FHA in M199 for 5 mins. on ice before they were added in 100 μl aliquots to the endothelial cells. For positive control, neutrophils were pre-incubated with 25 μg/ml anti-CD18 mAb IB4. For negative control, neutrophils were treated with 25 μg/ml mAb W6/32 against HLA class I antigen (Dako, Carpinteria, Calif.). The cells were incubated for 1 hour at 37° C., 5% CO2. To terminate transmigration, the supernatant fluid was aspirated and the wells were filled with warm 1 mM EGTA (Sigma) in HBSS without Ca and Mg. The plates were covered with plate sealers (Dynatech, Alexandria, Va.) and centrifuged in an inverted position at 250 g for 3 mins. at room temperature. To remove residual non-transmigrated neutrophils from the endothelial cells, monolayers were washed twice with 200 μl of warm Hanks solution without Ca and Mg. Fluorescence was quantitated using a fluorescence counter (Millipore Cytofluor™ 2300). The percentage of transmigrated neutrophils was determined by comparing the amount of fluorescence of test wells with that measured in collagen- and fibronectin-coated wells without endothelial cells. […] Percent inhibition of transendothelial migration of neutrophils was calculated by comparing the number of transmigrated cells in wells containing neutrophils treated with peptide to neutrophils treated with M199 alone and arbitrarily set at 100% transendothelial migration (TEM).
as §2

[3] = Peripheral white blood cells in rats; conditions: rat, in vivo
Experimental: (§3) Three hours after LOS inoculation, 5 μCi of ^125 I-radiolabelled albumin in 50 μl normal saline was administered intravenously. One hour later, CSF was collected via intracisternal puncture and blood samples were collected via intracardiac puncture. CSF leukocytosis was determined by manually counting white blood cells using a hemacytometer, and blood-brain barrier permeability was determined as the percent of radioactivity in whole blood that was present in the CSF. Blood samples were obtained immediately prior to inoculation, immediately prior to treatment, and at 4 hours post-inoculation for determination of peripheral white blood cell concentrations.

cerebral infarct = experiment: Rat transient middle cerebral artery occlusion: infarct volume; assay type: in vivo; conditions: 2 hours MCAo; 50 nmol i.v. plus 150 nmol i.p. boluses; 48 hours
blood-brain barrier = experiment: Rat meningitis model (LOS): blood-brain barrier permeability; assay type: in vivo; conditions: for inhibition of blood-brain barrier permeability (in words): rat, in vivo
Experimental: (§4) Briefly, anesthetized female Wistar rats were placed under a micromanipulator and inoculated intracisternally with a 25 gauge needle. After removal of 50 μl of CSF (without visible blood contamination), rats were inoculated intracisternally with 50 μl (20 ng) of LOS using a 1 ml syringe with a 25 gauge needle. Ten to fifteen minutes after inoculation with LOS, the rats were treated by intravenous administration of the test substance: a solution of an FHA peptide in PBS, a solution of a control peptide in PBS, or an equal volume of PBS alone.
as §3

B. pertussis = conditions: in vivo; cited from earlier work
leukocytes in CSF [4] = experiment: Rat meningitis model (LOS): CSF leukocytosis; assay type: in vivo; conditions: 4 hours
Experimental: The experiments were performed according to established protocols (Wispelway et al., 1988, J. Clin. Invest., 82: 1339-1346). Purified Haemophilus influenzae type b strain DL42 lipooligosaccharide (LOS) was prepared for inoculation by sonication for 30 minutes, dilution to the desired concentration (20 ng/50 μl) in normal saline or PBS, and sonication for an additional 15 to 30 minutes just prior to use.
as §4, §3

[5] = Stability in 50% rabbit plasma; assay type: in vitro ADME; conditions: 37° C.
Experimental: To determine the stability of the FHA II peptide, the unmodified or the acetylated-amidated peptide were incubated in 50% rabbit plasma at 37° C.

ciliated cells = conditions: cited from earlier work
albumin = conditions: cited from earlier work

T1 sequence (P05107 23-769, other chains not shown): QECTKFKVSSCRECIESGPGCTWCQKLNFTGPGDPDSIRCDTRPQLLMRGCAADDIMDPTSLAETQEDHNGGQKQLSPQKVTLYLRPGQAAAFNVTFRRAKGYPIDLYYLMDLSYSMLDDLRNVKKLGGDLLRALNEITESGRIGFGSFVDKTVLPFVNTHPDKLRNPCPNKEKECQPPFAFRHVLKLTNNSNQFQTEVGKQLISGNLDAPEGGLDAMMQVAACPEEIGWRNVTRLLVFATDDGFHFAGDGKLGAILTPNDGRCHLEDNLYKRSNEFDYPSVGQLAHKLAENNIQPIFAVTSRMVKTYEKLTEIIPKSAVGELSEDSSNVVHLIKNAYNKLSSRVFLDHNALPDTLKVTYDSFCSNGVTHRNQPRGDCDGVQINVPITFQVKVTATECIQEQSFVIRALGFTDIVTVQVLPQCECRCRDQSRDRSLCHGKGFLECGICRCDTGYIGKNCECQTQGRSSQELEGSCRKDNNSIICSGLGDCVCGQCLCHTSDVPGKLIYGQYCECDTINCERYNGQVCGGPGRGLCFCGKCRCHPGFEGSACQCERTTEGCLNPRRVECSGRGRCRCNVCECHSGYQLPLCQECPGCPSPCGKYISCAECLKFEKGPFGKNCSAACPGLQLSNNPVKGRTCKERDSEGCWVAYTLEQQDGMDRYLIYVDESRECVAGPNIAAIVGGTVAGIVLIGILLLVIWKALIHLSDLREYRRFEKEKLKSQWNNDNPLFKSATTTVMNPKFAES

Compound: RADPHQGVLAQGDIIMDAKG [FHA Cb]
- leukocyte migration into CSF (in words) (leukocytes in CSF [1]): ineffective
- leukocyte density in CSF (leukocytes in CSF [1]): 2788±1022 cells/μl CSF
- Total protein in CSF (blood brain barrier; 6 hours): 1.91 ± 0.24 mg/mL
- Total protein in CSF (blood brain barrier; 7 hours): 2.28 ± 0.28 mg/mL
- effect on CD11b/CD18 (in words) (CD11b/CD18): no significant effect
- neutrophil adherence blocking activity (in words) [2]: activity was decreased by half
- % Inhibition of TEM (neutrophils): 8 ± 9%

Compound: RGDPHQGVLAQGDIIMDAKG [FHA Ca]
- leukocyte migration into CSF (in words) (leukocytes in CSF [1]): significantly reduced leukocyte migration into the CSF
- leukocyte density in CSF (leukocytes in CSF [1]): 2137±1498 cells/μl CSF
- neutropenia [3]: No neutropenia
- infarct volume (cerebral infarct): approximately 25 % of the hemisphere
- Total protein in CSF (blood brain barrier; 6 hours): 1.18 ± 0.39 mg/mL
- Total protein in CSF (blood brain barrier; 7 hours): 1.69 ± 0.41 mg/mL
- BBB permeability (blood-brain barrier; 100 nmol i.v., radioactivity in CSF of that in whole blood): 3.0%
- inhibition of blood-brain barrier permeability (in words) (blood-brain barrier): dose dependent
- concentration at which loss of activity (≤20% inhibition) occurred [2]: 1 µM
- inhibition of neutrophil adherence to endothelial cells [2]: 47±7%
- maximal inhibition of neutrophil attachment ([2]; concentration dependence): ~ 50%
- concentration required for inhibition of transendothelial migration similar to native FHA (82%) (neutrophils): 10 µM

Compound: OC[C@H]1O[C@@H](O[C@H]2[C@H](O)[C@@H](O)C(O)O[C@@H]2CO)[C@H](O)[C@@H](O)[C@H]1O (stereo partly drawn) [Lactose]
- colonization of rabbit lung (B. pertussis): decrease colonization of rabbit lung

Compound: Ac-ETKEVDG-NH2 [Acetyl/Amide-FHA II]
- Leukocytosis (CSF leukocyte concentration) (leukocytes in CSF [4]; 600 nmol i.v.): approximately 10,000 cells/ml
- Leukocytosis (CSF leukocyte concentration) (leukocytes in CSF [4]; 600 nmol i.v., listed as ac/am FHA II): 10,500 ± 8523 cells/ml
- concentration over time (in words) [5]: remained unchanged over 48 hours
- leukocytes in CSF (leukocytes in CSF [1]; 6 hours, 10 nmoles i.v.): 3011±684 cells/μl
- neutropenia [3]: No neutropenia
- protein influx into CSF and lactate generation (in words) (blood brain barrier; 10 μM peptides, 0.1 μM FHA): significantly reduced protein influx into the CSF and generation of lactate
- inhibition of blood-brain barrier permeability (in words) (blood-brain barrier): not observed
- interference with neutrophil adherence (in words) ([2]; peptides 0.5 mM): significantly enhanced the ability of peptide FHA II to block neutrophil adherence to endothelia

Compound: lactosamines
- inhibition of adherence of B. pertussis to human ciliated cells (ciliated cells): Inhibition of adherence

Compound: GTLLLRNDALTENGTVTISA [FHA Cd]
- leukocyte recruitment into CSF (in words) (leukocytes in CSF [1]; 1 μM peptide i.v.): no effect
- Total protein in CSF (blood brain barrier; 6 hours): 1.71 ± 0.19 mg/mL
- Total protein in CSF (blood brain barrier; 7 hours): 2.03 ± 0.57 mg/mL
- effect on CD11b/CD18 (in words) (CD11b/CD18): no significant effect
- inhibition of neutrophil adherence to endothelial cells [2]: < 15%
- % Inhibition of TEM (neutrophils): 6 ± 6%

Compound: CC1(C)S[C@@H]2[C@H](NC(=O)Cc3ccccc3)C(=O)N2[C@H]1C(=O)O [penicillin]
- bound to albumin (albumin): ~80%

Compound: AADPHQGVLAQGDIIMDAKG [FHA Cc]
- Total protein in CSF (blood brain barrier; 6 hours): 1.36 ± 0.16 mg/mL
- Total protein in CSF (blood brain barrier; 7 hours): 1.90 ± 0.22 mg/mL
- effect on CD11b/CD18 (in words) (CD11b/CD18): no significant effect
- neutrophil adherence blocking activity (in words) [2]: activity was detectable above background but was not statistically different from buffer alone

Compound: IDVPQHGGAMRDLGIAQGKD [scrambled FHA Ca, reference compound]
- Leukocytosis (CSF leukocyte concentration) (leukocytes in CSF [4]; 100 nmol i.v.): 20,700 ± 7,400 cells/ml

Compound: Ac-VEEDTKG-NH2 [scrambled ac/am FHA II, VEEDTKG, reference compound]
- Leukocytosis (CSF leukocyte concentration) (leukocytes in CSF [4]; 600 nmol i.v.): 14,287 ± 10,199 cells/ml
